The target of the assay is T1, human NK2 receptor (Homo sapiens, UniProt P21452).
T1 construct: purchased Perkin Elmer biosignal Inc. 6110510
T1 sequence (P21452 1-398): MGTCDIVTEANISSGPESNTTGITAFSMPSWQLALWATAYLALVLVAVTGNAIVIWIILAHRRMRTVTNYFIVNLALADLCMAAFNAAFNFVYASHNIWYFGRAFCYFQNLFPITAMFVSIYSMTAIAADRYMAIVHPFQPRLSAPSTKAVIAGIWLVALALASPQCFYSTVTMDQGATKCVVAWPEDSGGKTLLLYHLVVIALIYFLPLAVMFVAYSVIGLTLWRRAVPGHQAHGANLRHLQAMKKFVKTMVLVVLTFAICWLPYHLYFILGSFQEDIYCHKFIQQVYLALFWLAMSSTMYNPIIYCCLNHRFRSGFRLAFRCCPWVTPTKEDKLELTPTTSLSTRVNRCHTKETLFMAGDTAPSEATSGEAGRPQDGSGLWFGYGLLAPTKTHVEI
Description: [3H]SR48968 competition binding assay. The note with it: [3H]SR48968 displacement, membranes of CHO cells stably expressing recombinant human NK2 receptor; Ki from IC50 by Cheng-Prussoff. Here is the method:
[^3H]SR48968 Competition Binding Assay
hNK2 receptor binding experiment were performed using [^3H]SR48968 (Catalog No. TRK398, specific activity: 27.0 Ci/mmol, Amersham, GE Healthcare UK limited, Buckinghamshire, UK) and membrane isolated from CHO cells stably expressing recombinant human NK2 receptor (product No. 6110510, Perkin Elmer biosignal Inc., Shelton, Conn., USA). After thawing, the membrane homogenates were centrifuged at 48,000×g for 10 min at 4° C., the pellets were resuspended in the 50 mM Tris-HCl, 3 mM MnCl2, 4 μg/mL Chymostatin, 0.04% BSA binding buffer at pH 7.4 to a final assay concentration of 6.5 μg protein/well. For inhibition experiments, membranes were incubated with [^3H]SR48968 at a concentration equal to KD value of radioligand and 10 concentrations of the inhibitory compound (0.0003-10 μM) (in a total reaction volume of 500 μl) for 75 min at room temperature (RT). At the end of the incubation, membranes were filtered onto unitfilter (96-well white microplate with bonded GF/C filter preincubated 1 h in 0.3% polyethylenimine, Packard BioScience, Meriden, Conn.) with a Filtermate 196 harvester (Packard BioScience) and washed 4 times with ice-cold 50 mM Tris-HCl, pH 7.4 buffer. Nonspecific binding was measured in the presence of 10 μM 1-{2-[(R)-3-(3,4-dichloro-phenyl)-1-(3,4,5-trimethoxy-benzoyl)-pyrrolidin-3-yl]-ethyl}-4-phenyl-piperidine-4-carboxylic acid amide. The radioactivity on the filter was counted (5 min) on a Packard Top-count microplate scintillation counter with quenching correction after addition of 45 μl of microscint 40 (Canberra Packard S. A., Zürich, Switzerland) and shaking for 1 h. Inhibition curves were fitted according to the Hill equation: y=100/(1+(x/IC50)^nH), where nH=slope factor using Excel-fit 4 software (Microsoft). IC50 values were derived from the inhibition curve and the affinity constant (Ki) values were calculated using the Cheng-Prussoff equation Ki=IC50/(1+[L]/KD) where [L] was the concentration of radioligand and KD was its dissociation constant at the receptor, derived from the saturation isotherm.
The term Ki denotes the equilibrium dissociation constant of an inhibitor or competing ligand from its target. On to `COc1ccc(C(=O)N(C)[C@@H]2CN(C(=O)N3CCN(S(C)(=O)=O)CC3)C[C@H]2c2ccc(Cl)cc2)cc1C(F)(F)F` (racemic) [Example 6, rac-N-[(3S,4R)-4-(4-Chloro-phenyl)-1-(4-methanesulfonyl-piperazine-1-carbonyl)-pyrrolidin-3-yl]-4-methoxy-N-methyl-3-trifluoromethyl-benzamide], for which the Ki was 10.7 nM.
As to `CN(C(=O)c1cccc(C(F)(F)F)c1)[C@@H]1CN(C(=O)N2CCN(S(C)(=O)=O)CC2)C[C@H]1c1ccc(Cl)cc1` (racemic) [Example 7, rac-N-[(3S,4R)-4-(4-Chloro-phenyl)-1-(4-methanesulfonyl-piperazine-1-carbonyl)-pyrrolidin-3-yl]-N-methyl-3-trifluoromethyl-benzamide], the inhibition constant (Ki) came to 33.9 nM.
For the compound `COc1ccc(C(=O)N(C)[C@@H]2CN(C(=O)N3CCN(S(C)(=O)=O)CC3)C[C@H]2c2ccc(Cl)c(Cl)c2)cc1C(F)(F)F` (racemic) [Example 8, rac-N-[(3S,4R)-4-(3,4-Dichloro-phenyl)-1-(4-methanesulfonyl-piperazine-1-carbonyl)-pyrrolidin-3-yl]-4-methoxy-N-methyl-3-trifluoromethyl-benzamide], the Ki was found to be 2.33 nM.
Regarding `CN(C(=O)c1ccccc1)[C@@H]1CN(C(=O)N2CCN(S(C)(=O)=O)CC2)C[C@H]1c1ccc(Cl)c(Cl)c1` (racemic) [Example 9, rac-N-[(3S,4R)-4-(3,4-Dichloro-phenyl)-1-(4-methanesulfonyl-piperazine-1-carbonyl)-pyrrolidin-3-yl]-N-methyl-benzamide], the Ki turned out to be 86.9 nM.
`CN(C(=O)c1ccc(F)cc1)[C@@H]1CN(C(=O)N2CCN(S(C)(=O)=O)CC2)C[C@H]1c1ccc(Cl)c(Cl)c1` (racemic) [Example 10, rac-N-[(3S,4R)-4-(3,4-Dichloro-phenyl)-1-(4-methanesulfonyl-piperazine-1-carbonyl)-pyrrolidin-3-yl]-4-fluoro-N-methyl-benzamide]: the Ki was 28.8 nM.
In the case of `CN(C(=O)c1cccc(Cl)c1)[C@@H]1CN(C(=O)N2CCN(S(C)(=O)=O)CC2)C[C@H]1c1ccc(Cl)c(Cl)c1` (racemic) [Example 11, rac-3-Chloro-N-[(3S,4R)-4-(3,4-dichloro-phenyl)-1-(4-methanesulfonyl-piperazine-1-carbonyl)-pyrrolidin-3-yl]-N-methyl-benzamide], the inhibitory constant (Ki) was 14.3 nM.
As for `CN(C(=O)c1ccc(Cl)cc1)[C@@H]1CN(C(=O)N2CCN(S(C)(=O)=O)CC2)C[C@H]1c1ccc(Cl)c(Cl)c1` (racemic) [Example 12, rac-4-Chloro-N-[(3S,4R)-4-(3,4-dichloro-phenyl)-1-(4-methanesulfonyl-piperazine-1-carbonyl)-pyrrolidin-3-yl]-N-methyl-benzamide], the inhibition constant (Ki) worked out at 2.75 nM.
With `CN(C(=O)c1ccc(C#N)cc1)[C@@H]1CN(C(=O)N2CCN(S(C)(=O)=O)CC2)C[C@H]1c1ccc(Cl)c(Cl)c1` (racemic) [Example 13, rac-4-Cyano-N-[(3S,4R)-4-(3,4-dichloro-phenyl)-1-(4-methanesulfonyl-piperazine-1-carbonyl)-pyrrolidin-3-yl]-N-methyl-benzamide] the figure was 23.7 nM; with `CCc1ccc(C(=O)N(C)[C@@H]2CN(C(=O)N3CCN(S(C)(=O)=O)CC3)C[C@H]2c2ccc(Cl)c(Cl)c2)cc1` (racemic) [Example 14, rac-N-[(3S,4R)-4-(3,4-Dichloro-phenyl)-1-(4-methanesulfonyl-piperazine-1-carbonyl)-pyrrolidin-3-yl]-4-ethyl-N-methyl-benzamide], 1.17 nM; with `CN(C(=O)c1cccc(C#N)c1)[C@@H]1CN(C(=O)N2CCN(S(C)(=O)=O)CC2)C[C@H]1c1ccc(Cl)c(Cl)c1` (racemic) [Example 15, rac-3-Cyano-N-[(3S,4R)-4-(3,4-dichloro-phenyl)-1-(4-methanesulfonyl-piperazine-1-carbonyl)-pyrrolidin-3-yl]-N-methyl-benzamide], 65.2 nM.

Source of the values: patent US8404679B2, “Pyrrolidine derivatives as NK2 receptor antagonists” (Hoffmann-La Roche Inc., priority 2008, dated 2013).
